Measured values taken from paper PMC7603469, “The biologically functional identification of a novel TIM3-binding peptide P26 in vitro and in vivo” (Cancer Chemotherapy and Pharmacology, 2020).
Where a SMILES comes first, the peptide text is derived from it.

Assays:
MC38-hPD-L1 tumor = test: Tumor growth assay, MC38-hPD-L1 tumor-bearing B-hTIM-3 humanized mice; assay type: in vivo, mouse; settings: P26 5 mg/kg/d, ATE 10 mg/kg/4d, n = 7
Procedure: C57BL/6 mice transgenic for B-hHAVCR2 (TIM3) (Biocytogen, Beijing, China) were used to evaluate the anti-tumor activity of P26 in vivo. After 1 week of adaptive feeding, 6-week-old female mice were inoculated with 0.1 mL of MC38-hPD-L1 cells (1 × 10^6 cells) by subcutaneous injection on the right scapula followed by the measurements of tumor volume and body weight. When the average tumor volume reached about 80 mm^3, mice were randomly divided into […] groups and administrated with different drugs: (A) PBS (control), (B) ATE (PD-L1 inhibitor Atezolizumab, 10 mg/kg/4d, as the positive group), (C) P26 (5 mg/kg/d), and (D) P26 (5 mg/kg/d) plus ATE (10 mg/kg/4d). The weight and tumor volume of the mice were measured twice a week. When the body weight loss (% BWL) was above 20%, the drug was discontinued, and then, ethically acceptable execution to mice was adopted upon the failure of weight loss recovery in 72 h. The weight and volume of tumors were then analyzed.

TIM3 = target: T1, TIM3 (Mus musculus, UniProt Q8VIM0); test: SPR binding, TIM3 immobilized on chip; settings: TIM3 50 μg/mL immobilized on nanogold sensor chip (EDC/NHS), flow rate 20 μL/min for about 7 min, read-out: affinity constant (KD)
T1 construct: purchased Chimerigen CHI-MF-210T3-C050
Procedure: Surface plasmon resonance (SPR) assay. The affinity identification between P26 and TIM3 was performed by immobilizing the TIM3 protein (50 μg/mL) on the surface of the nanogold sensor chip after the chip was activated by EDC/NHS. P26/Gal-9 competition assay was performed by immobilizing Gal-9 protein (25 µg/mL) on the sensor chip. Each sample was injected at a flow rate of 20 μL/min for about 7 min. KD, ka, and kd were calculated by Trace Drawer Evaluation (version 2.0).

T1 sequence (Q8VIM0 20-193 limits assumed): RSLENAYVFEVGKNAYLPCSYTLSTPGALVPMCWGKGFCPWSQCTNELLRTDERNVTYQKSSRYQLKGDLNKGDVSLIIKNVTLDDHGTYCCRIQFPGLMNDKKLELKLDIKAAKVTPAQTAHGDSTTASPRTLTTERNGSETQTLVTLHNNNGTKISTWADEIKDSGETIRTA

| Compound | inhibition of MC38-hPD-L1 tumor growth vs solvent control (in words) (MC38-hPD-L1 tumor; tumor nodules on day 36, Fig. 4b, c) | tumor volume inhibition rate (MC38-hPD-L1 tumor; vs PBS control, start day 10, sacrificed day 36, Fig. 4d) [%] | Kd (TIM3) [µM] |
| --- | --- | --- | --- |
| ATE: PD-L1 inhibitor Atezolizumab, positive group | significantly inhibit the growth | 43.71 |  |
| CC[C@H](C)[C@H](NC(=O)[C@H](Cc1c[nH]cn1)NC(=O)[C@H](CCSC)NC(=O)[C@@H](NC(=O)[C@@H](NC(=O)[C@H](CC(C)C)NC(=O)[C@@H]1CCCN1C(=O)[C@@H](NC(=O)[C@H](CC(C)C)NC(=O)CN)[C@@H](C)CC)[C@@H](C)O)[C@@H](C)O)C(=O)NCC(=O)N[C@@H](CCCCN)C(=O)O [Peptide P26] (H-GLIPLTTMHIGK-OH) |  |  | 34.4 |
